Data: ChEMBL document CHEMBL1141332, “Cytotoxic metabolites from an Indonesian sponge Lendenfeldia sp” (J Nat Prod, 2007)

Tests used:
Assay type in all cases: functional
MOLT-4 = assay: Cytotoxicity against human MOLT4 cells
RPMI-8226 = assay: Cytotoxicity against human RPMI8226 cells
A549 = assay: Cytotoxicity against human A549 cells
EKVX = assay: Cytotoxicity against human EKVX cells
HOP-62 = assay: Cytotoxicity against human HOP62 cells
HOP-92 = assay: Cytotoxicity against human HOP92 cells
NCI-H226 = assay: Cytotoxicity against human NCI-H226 cells
NCI-H23 = assay: Cytotoxicity against human NCI-H23 cells
NCI-H322M = assay: Cytotoxicity against human NCI-H322M cells
NCI-H460 = assay: Cytotoxicity against human NCI-H460 cells
LOX IMVI = assay: Cytotoxicity against human LOX IMVI cells
HCC 2998 = assay: Cytotoxicity against human HCC2998 cells
HCT-116 = assay: Cytotoxicity against human HCT116 cells
HCT-15 = assay: Cytotoxicity against human HCT15 cells
HT-29 = assay: Cytotoxicity against human HT29 cells
KM12 = assay: Cytotoxicity against human KM12 cells
SW-620 = assay: Cytotoxicity against human SW620 cells
SF-268 = assay: Cytotoxicity against human SF268 cells
SF-295 = assay: Cytotoxicity against human SF295 cells
SF-539 = assay: Cytotoxicity against human SF539 cells
SNB-19 = assay: Cytotoxicity against human SNB19 cells; conditions: read-out: Log LC50 (the source's name) (converted)
SNB-75 = assay: Cytotoxicity against human SNB75 cells
U-251 = assay: Cytotoxicity against human U251cells
M14 = assay: Cytotoxicity against human M14 cells
SK-MEL-2 = assay: Cytotoxicity against human SK-MEL-2 cells
SK-MEL-28 = assay: Cytotoxicity against human SK-MEL-28 cells
SK-MEL-5 = assay: Cytotoxicity against human SK-MEL-5 cells
UACC-257 = assay: Cytotoxicity against human UACC257 cells
UACC-62 = assay: Cytotoxicity against human UACC62 cells
IGROV-1 = assay: Cytotoxicity against human IGROV1 cells
OVCAR-3 = assay: Cytotoxicity against human OVCAR-3 cells
OVCAR-5 = assay: Cytotoxicity against human OVCAR5 cells
OVCAR-8 = assay: Cytotoxicity against human OVCAR8 cells
SK-OV-3 = assay: Cytotoxicity against human SK-OV-3 cells
786-0 = assay: Cytotoxicity against human 786-0 cells
RXF 393 = assay: Cytotoxicity against human RXF393 cells
SN12C = assay: Cytotoxicity against human SN12C cells
TK-10 = assay: Cytotoxicity against human TK10 cells
UO-31 = assay: Cytotoxicity against human UO31 cells
PC-3 = assay: Cytotoxicity against human PC3 cells
NCI/ADR-RES = assay: Cytotoxicity against human NCI/ADR-RES cells
MDA-MB-231 = assay: Cytotoxicity against human MDA-MB-231 cells
[1] = Cytotoxicity against human HS578T cells; conditions: Hs-578T
MDA-MB-435 = assay: Cytotoxicity against human MDA-MB-435 cells
BT-549 = assay: Cytotoxicity against human BT549 cells
[2] = read-out: Log LC50 (the source's name) (converted)

CC(=O)C1=CC[C@H]2[C@]3(C)CC[C@H]4C(C)(C)CCC[C@]4(C(=O)O)[C@H]3CC(=O)[C@]2(C)[C@H]1C=O
GI50 (MOLT-4): 0.257 µM | CC50 (MOLT-4; [2]): 4.47 µM | TGI (MOLT-4; read-out: Log TGI (converted)): 0.912 µM | GI50 (RPMI-8226): 0.603 µM | CC50 (RPMI-8226; [2]): 12.9 µM | TGI (RPMI-8226; read-out: Log TGI (converted)): 2.34 µM | GI50 (A549): 2.57 µM | CC50 (A549; [2]): 74.1 µM | TGI (A549; read-out: Log TGI (converted)): 12.6 µM | GI50 (EKVX): 2.14 µM | CC50 (EKVX; [2]): 25.1 µM | TGI (EKVX; read-out: Log TGI (converted)): 5.62 µM | GI50 (HOP-62): 1.35 µM | CC50 (HOP-62; [2]): 5.75 µM | TGI (HOP-62; read-out: Log TGI (converted)): 2.75 µM | GI50 (HOP-92): 1.91 µM | CC50 (HOP-92; [2]): 7.41 µM | TGI (HOP-92; read-out: Log TGI (converted)): 3.72 µM | GI50 (NCI-H226): 1.82 µM | TGI (NCI-H226; read-out: Log TGI (converted)): 3.8 µM | GI50 (NCI-H23): 2 µM | CC50 (NCI-H23; [2]): 9.12 µM | TGI (NCI-H23; read-out: Log TGI (converted)): 4.27 µM | GI50 (NCI-H322M): 3.55 µM | CC50 (NCI-H322M; [2]): 42.7 µM | TGI (NCI-H322M; read-out: Log TGI (converted)): 10.5 µM | GI50 (NCI-H460): 1.66 µM | CC50 (NCI-H460; [2]): 8.71 µM | TGI (NCI-H460; read-out: Log TGI (converted)): 3.8 µM | GI50 (LOX IMVI): 1.45 µM | CC50 (LOX IMVI; [2]): 5.62 µM | TGI (LOX IMVI; read-out: Log TGI (converted)): 2.82 µM | GI50 (HCC 2998): 1.62 µM | CC50 (HCC 2998; [2]): 5.62 µM | TGI (HCC 2998; read-out: Log TGI (converted)): 3.02 µM | GI50 (HCT-116): 0.468 µM | CC50 (HCT-116; [2]): 4.07 µM | TGI (HCT-116; read-out: Log TGI (converted)): 1.62 µM | GI50 (HCT-15): 0.759 µM | CC50 (HCT-15; [2]): 5.25 µM | TGI (HCT-15; read-out: Log TGI (converted)): 2.14 µM | GI50 (HT-29): 0.257 µM | CC50 (HT-29; [2]): > 100 µM | TGI (HT-29; read-out: Log TGI (converted)): 1.62 µM | GI50 (KM12): 1.41 µM | CC50 (KM12; [2]): 21.4 µM | TGI (KM12; read-out: Log TGI (converted)): 3.89 µM | GI50 (SW-620): 0.324 µM | CC50 (SW-620; [2]): 3.39 µM | TGI (SW-620; read-out: Log TGI (converted)): 1.12 µM | GI50 (SF-268): 1.2 µM | CC50 (SF-268; [2]): 7.24 µM | TGI (SF-268; read-out: Log TGI (converted)): 2.95 µM | GI50 (SF-295): 1.45 µM | CC50 (SF-295; [2]): 6.92 µM | TGI (SF-295; read-out: Log TGI (converted)): 3.16 µM | GI50 (SF-539): 0.741 µM | CC50 (SF-539; [2]): 4.57 µM | TGI (SF-539; read-out: Log TGI (converted)): 2.04 µM | CC50 (SNB-19): 3.02 µM | GI50 (SNB-75): 1.82 µM | CC50 (SNB-75; [2]): 5.89 µM | TGI (SNB-75; read-out: Log TGI (converted)): 3.31 µM | GI50 (U-251): 1.23 µM | CC50 (U-251; [2]): 5.01 µM | TGI (U-251; read-out: Log TGI (converted)): 2.45 µM | GI50 (M14): 1.82 µM | CC50 (M14; [2]): 6.92 µM | TGI (M14; read-out: Log TGI (converted)): 3.55 µM | GI50 (SK-MEL-2): 2.4 µM | CC50 (SK-MEL-2; [2]): 37.2 µM | TGI (SK-MEL-2; read-out: Log TGI (converted)): 5.25 µM | GI50 (SK-MEL-28): 0.355 µM | CC50 (SK-MEL-28; [2]): 4.47 µM | TGI (SK-MEL-28; read-out: Log TGI (converted)): 1.35 µM | GI50 (SK-MEL-5): 1.45 µM | CC50 (SK-MEL-5; [2]): 5.25 µM | TGI (SK-MEL-5; read-out: Log TGI (converted)): 2.75 µM | GI50 (UACC-257): 2.4 µM | CC50 (UACC-257; [2]): 42.7 µM | TGI (UACC-257; read-out: Log TGI (converted)): 6.46 µM | GI50 (UACC-62): 1.74 µM | CC50 (UACC-62; [2]): 5.89 µM | TGI (UACC-62; read-out: Log TGI (converted)): 3.24 µM | GI50 (IGROV-1): 2.57 µM | CC50 (IGROV-1; [2]): 50.1 µM | TGI (IGROV-1; read-out: Log TGI (converted)): 8.13 µM | GI50 (OVCAR-3): 0.295 µM | CC50 (OVCAR-3; [2]): 3.47 µM | TGI (OVCAR-3; read-out: Log TGI (converted)): 1.02 µM | GI50 (OVCAR-5): 1.86 µM | CC50 (OVCAR-5; [2]): 8.91 µM | TGI (OVCAR-5; read-out: Log TGI (converted)): 4.07 µM | GI50 (OVCAR-8): 1.32 µM | CC50 (OVCAR-8; [2]): > 100 µM | TGI (OVCAR-8; read-out: Log TGI (converted)): 3.63 µM | GI50 (SK-OV-3): 3.02 µM | CC50 (SK-OV-3; [2]): 37.2 µM | TGI (SK-OV-3; read-out: Log TGI (converted)): 10.2 µM | GI50 (786-0): 0.603 µM | CC50 (786-0; [2]): 4.37 µM | TGI (786-0; read-out: Log TGI (converted)): 1.91 µM | GI50 (RXF 393): 1.17 µM | TGI (RXF 393; read-out: Log TGI (converted)): 2.57 µM | GI50 (SN12C): 1.55 µM | LC50 (SN12C): 6.46 µM | TGI (SN12C; read-out: Log TGI (converted)): 3.16 µM | GI50 (TK-10): 1.17 µM | LC50 (TK-10): 6.61 µM | TGI (TK-10; read-out: Log TGI (converted)): 2.82 µM | GI50 (UO-31): 1.2 µM | LC50 (UO-31): 5.62 µM | TGI (UO-31; read-out: Log TGI (converted)): 2.57 µM | GI50 (PC-3): 0.977 µM | LC50 (PC-3): 18.2 µM | TGI (PC-3; read-out: Log TGI (converted)): 3.63 µM | GI50 (NCI/ADR-RES): 1.91 µM | LC50 (NCI/ADR-RES): 8.91 µM | TGI (NCI/ADR-RES; read-out: Log TGI (converted)): 4.07 µM | GI50 (MDA-MB-231): 1.66 µM | LC50 (MDA-MB-231): 6.31 µM | TGI (MDA-MB-231; read-out: Log TGI (converted)): 3.24 µM | GI50 [1]: 1.74 µM | LC50 [1]: 19.1 µM | TGI ([1]; read-out: Log TGI (converted)): 4.37 µM | GI50 (MDA-MB-435): 1.55 µM | LC50 (MDA-MB-435): 6.17 µM | TGI (MDA-MB-435; read-out: Log TGI (converted)): 3.09 µM | GI50 (BT-549): 1.26 µM | LC50 (BT-549): 6.17 µM | TGI (BT-549; read-out: Log TGI (converted)): 2.75 µM
